Test results as given in patent US12383479B2 (LG HOUSEHOLD & HEALTH CARE LTD., priority 2021, dated 2025).
In brackets after ≈: the same amount, converted by molar mass.

Legend:
[1] = Experimental Example 2: solubility of palmitoylethanolamide with combined use of selected solvents and 2,3-butanediol; type: physicochemical; settings: 1 wt % palmitoylethanolamide, 25° C. for 4 weeks, regardless of weight ratio
[2] = 25° C.; cited from earlier work
[3] = Experimental Example 1: solubility of palmitoylethanolamide in each polyol solvent; type: physicochemical; settings: 25° C. for 24 hours
Excerpt: Polyols representatively used as solvents of cosmetics were chosen, which were propanediol, glycerin, […], 2,3-butanediol, pentylene glycol, dipropylene glycol, propylene glycol, butylene glycol, ethoxydiglycerol, and 1,2-hexanediol.

[4] = 0.5 wt % and 1 wt % palmitoylethanolamide

## CCCCCCCCCCCCCCCC(=O)NCCO [palmitoylethanolamide, N-(2-hydroxyethyl)hexadecanamide]
[1]
  solubility in 1,2-hexanediol combined with 2,3-butanediol: dissolved
  solubility in pentylene glycol combined with 2,3-butanediol: dissolved
[2]
  water solubility: 0.4431 µg/mL (≈ 1.48 µM)
[3]; [4]
  solubility in 1,2-hexanediol: good solubility
  solubility in pentylene glycol: good solubility
[3]; propanediol, glycerin, ethanol, 2,3-butanediol, dipropylene glycol, propylene glycol, butylene glycol, ethoxydiglycerol, 0.5 and 1 wt %
  solubility in the remaining polyols: precipitation
